Here are results for one molecule from patent US20260062422A1 (Halda Therapeutics OpCo, Inc., priority 2022, published 2026).

One assay concerns VCaP cells. The assay can be described thus: Cellular growth inhibition assay for VCaP cells, CellTiter-Glo. Format: cell-based, human. The note with it: Homo sapiens, VCaP, 72 h, 72 hours treatment, CellTiter-Glo 2.0. A digest of the protocol: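 GI50 values come from four-parameter curve fits of luminescence data normalized to a zero baseline. Compound, in medium with 0.5% DMSO, was added one day after plating and left for 72 h before CellTiter-Glo 2.0 addition.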
Background: ATP-based viability assays read luminescence as a measure of living cells.

The subject of another assay is T47D cells. The assay can be described thus: Cellular growth inhibition assay for T47D cells, CellTiter-Glo. Format: cell-based, human. The following applies: Homo sapiens, T47D, 72 h, 72 hours treatment, CellTiter-Glo 2.0 cell viability. A digest of the protocol: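 Growth inhibition as GI50, fitted with four parameters to CellTiter-Glo luminescence after 72 h of compound exposure (0.5% DMSO). Cells were T47D, grown in insulin-supplemented (0.2 units/mL) DMEM with 10% FBS and treated one day post-seeding.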

The target in assay [1] is T1, progesterone receptor ligand binding domain (LBD) (Homo sapiens, UniProt P06401).
T1 construct: GST-tagged PR LBD, Fluormone tracer, and compound were mixed; purchased Life Technologies A15905 or a15906
T1 sequence (P06401 679-913 limits assumed): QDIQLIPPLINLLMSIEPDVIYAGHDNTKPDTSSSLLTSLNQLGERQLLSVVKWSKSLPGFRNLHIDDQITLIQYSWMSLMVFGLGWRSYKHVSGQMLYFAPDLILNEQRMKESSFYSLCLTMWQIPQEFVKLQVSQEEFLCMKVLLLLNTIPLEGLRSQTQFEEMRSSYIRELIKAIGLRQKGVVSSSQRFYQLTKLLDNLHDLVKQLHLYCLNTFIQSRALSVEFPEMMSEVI
In words: FP assay (PolarScreen Progesterone Receptor Competitor Assay) for binding to progesterone receptor LBD. The following applies: GST-tagged PR LBD, Fluormone tracer, fluorescence polarization, 2 hours; Table 17. The procedure: Compounds were tested using the PolarScreen™ Progesterone Receptor Competitor Assay Kit (Life Technologies Cat #A15905 or a15906), as per the manufacturer's instructions. Briefly, GST-tagged PR LBD, Fluormone tracer, and compound were mixed and incubated for 2 hours at room temperature in the dark. Following incubation, the plates were spun at 3000×g for 30 seconds, then sealed with an optical adhesive cover, and fluorescence polarization was measured using appropriate excitation and emission filters with an EnVision Plate Reader (Perkin Elmer). Compound concentration vs. mP value were plotted in Prism (GraphPad). A four-parameter non-linear regression curve fit was applied to dose-response data to determine the half-maximal inhibitory concentration (IC50) for each test compound.
(In general: Fluorescence polarisation rises when a labelled molecule tumbles more slowly, as on binding a larger partner.)

Where only a bound is given, the exact number is not on record here.

As a reminder, the GI50 is the concentration at which growth is held to half of that of the control. As a reminder, the IC50 is the concentration at which inhibition is half-maximal. A lower IC50 goes with greater potency. For the molecule `Cc1sc2c(c1C)C(c1ccc(CCCOC3CCN(c4ncc5c(n4)CN([C@H]4C(C)(C)[C@H](Oc6ccc(C#N)c(Cl)c6)C4(C)C)C5=O)CC3)cc1)=NC(Cc1ncco1)c1nnc(C)n1-2` (stereo partly drawn) [Compound I-134], the GI50 in the assay with VCaP cells is < 0.5 µM; with T47D cells, 0.5 to 1.5 µM. This molecule also yielded an IC50 in assay [1] of 0.05 to 0.5 µM.
